Data taken from ChEMBL document CHEMBL4392825, “New SIRT2 inhibitors: Histidine-based bleomycin spin-off” (Bioorg Med Chem, 2019).

Columns and labels:
[1] = molecular target: T1, NAD-dependent protein deacetylase sirtuin-2 (Homo sapiens, UniProt Q8IXJ6); assay: Inhibition of recombinant SIRT2 (unknown origin) using FAM-RHKK(Ac)LM as substrate measured after 60 mins by electrophoretic mobility shift assay
T1 sequence (Q8IXJ6 whole entry): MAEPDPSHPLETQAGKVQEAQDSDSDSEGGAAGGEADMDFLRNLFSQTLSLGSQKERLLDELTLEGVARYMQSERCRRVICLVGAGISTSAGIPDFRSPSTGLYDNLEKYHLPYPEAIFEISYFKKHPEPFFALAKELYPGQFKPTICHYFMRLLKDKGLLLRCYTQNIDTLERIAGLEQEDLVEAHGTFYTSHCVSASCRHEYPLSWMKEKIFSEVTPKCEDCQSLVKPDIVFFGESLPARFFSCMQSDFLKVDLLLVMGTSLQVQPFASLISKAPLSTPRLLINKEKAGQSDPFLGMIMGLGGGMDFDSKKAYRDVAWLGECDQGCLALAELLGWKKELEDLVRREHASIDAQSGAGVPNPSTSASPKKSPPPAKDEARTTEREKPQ

[2] = molecular target: T2, NAD-dependent protein deacetylase sirtuin-1 (Homo sapiens) (UniProt Q96EB6); assay: Inhibition of recombinant SIRT1 (unknown origin) assessed as residual activity using RHKK(Ac)-MCA as substrate measured after 60 mins by fluorescence assay relative to control; design: concentration or dose not given beside the values
T2 sequence (whole entry): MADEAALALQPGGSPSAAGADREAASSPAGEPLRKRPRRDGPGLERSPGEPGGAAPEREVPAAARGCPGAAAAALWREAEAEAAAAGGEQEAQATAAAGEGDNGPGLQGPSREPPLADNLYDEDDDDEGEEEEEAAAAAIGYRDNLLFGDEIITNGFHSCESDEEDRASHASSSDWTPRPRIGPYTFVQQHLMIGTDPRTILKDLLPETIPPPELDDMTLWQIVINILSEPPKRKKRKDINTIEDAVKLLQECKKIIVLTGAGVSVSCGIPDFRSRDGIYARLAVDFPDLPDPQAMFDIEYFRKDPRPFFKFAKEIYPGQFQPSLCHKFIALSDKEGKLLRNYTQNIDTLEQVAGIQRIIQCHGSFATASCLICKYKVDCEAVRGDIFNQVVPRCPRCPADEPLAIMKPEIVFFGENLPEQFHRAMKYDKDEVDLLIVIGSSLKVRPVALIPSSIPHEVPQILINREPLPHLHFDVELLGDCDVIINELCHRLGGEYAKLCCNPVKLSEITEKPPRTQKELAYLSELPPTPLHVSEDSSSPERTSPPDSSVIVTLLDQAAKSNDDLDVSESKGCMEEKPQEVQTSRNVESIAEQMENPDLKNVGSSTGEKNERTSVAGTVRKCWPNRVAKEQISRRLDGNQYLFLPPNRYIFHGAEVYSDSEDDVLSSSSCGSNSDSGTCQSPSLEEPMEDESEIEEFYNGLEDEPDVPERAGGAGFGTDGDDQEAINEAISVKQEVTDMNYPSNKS

[3] = molecular target: T3, NAD-dependent protein deacetylase sirtuin-3, mitochondrial (Homo sapiens) (UniProt Q9NTG7); assay: Inhibition of recombinant SIRT3 (unknown origin) assessed as residual activity using VSTPVK(Ac)-MCA as substrate measured after 60 mins by fluorescence assay relative to control; design: concentration or dose not given beside the values
T3 sequence (whole entry): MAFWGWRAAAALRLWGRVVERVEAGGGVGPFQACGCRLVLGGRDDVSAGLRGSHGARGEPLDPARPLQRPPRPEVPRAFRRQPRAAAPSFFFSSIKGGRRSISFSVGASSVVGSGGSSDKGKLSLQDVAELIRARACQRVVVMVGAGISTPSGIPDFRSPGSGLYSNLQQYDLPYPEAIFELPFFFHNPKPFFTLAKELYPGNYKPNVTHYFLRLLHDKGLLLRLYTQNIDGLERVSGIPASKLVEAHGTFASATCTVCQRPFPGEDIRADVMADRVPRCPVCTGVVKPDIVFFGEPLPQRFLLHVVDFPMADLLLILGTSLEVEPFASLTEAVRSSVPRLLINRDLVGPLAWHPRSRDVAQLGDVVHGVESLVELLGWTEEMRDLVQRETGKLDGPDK

K562 = assay: Cytotoxicity against human K562 cells assessed as reduction in cell viability measured after 1 day by MTT assay; assay type: functional, cell-based; settings: K562, 24 h
MT2 = assay: Cytotoxicity against human MT2 cells assessed as reduction in cell viability measured after 1 day by MTT assay; assay type: cell-based; settings: MT2, 24 h
MCF7 = assay: Cytotoxicity against human MCF7 cells assessed as reduction in cell viability measured after 4 days by MTT assay; assay type: functional, cell-based; settings: MCF7, 96 h
[4] = molecular target: T1, NAD-dependent protein deacetylase sirtuin-2; assay: Inhibition of recombinant SIRT2 (unknown origin) using RHKK(Ac)-MCA as substrate measured after 60 mins by fluorescence assay

| SMILES | IC50 [1] | Activity [2] | Activity [3] | IC50 [4] | IC50 (K562) | IC50 (MT2) | IC50 (MCF7) |
| --- | --- | --- | --- | --- | --- | --- | --- |
| COC(=O)[C@H](Cc1cn(C(c2ccccc2)(c2ccccc2)c2ccccc2)cn1)N(Cc1ccccc1)Cc1ccccc1 | > 100 µM | 116% | 90.7% |  |  |  |  |
| COC(=O)[C@@H](N)Cc1cn(C(c2ccccc2)(c2ccccc2)c2ccccc2)cn1 | 43 µM | 95.9% | 76.2% |  | 7.2 µM | 3.13 µM | 49.1 µM |
| COC(=O)[C@H](Cc1cn(C(c2ccccc2)(c2ccccc2)c2ccccc2)cn1)NCc1ccc2ccccc2n1 | 2.5 µM |  |  |  |  |  |  |
| CCN(CC)c1ccnc(CN[C@@H](Cc2cn(C(c3ccccc3)(c3ccccc3)c3ccccc3)cn2)C(=O)OC)c1 | 1.3 µM |  |  |  | 6.27 µM | 4.36 µM | 0.71 µM |
| COC(=O)[C@H](Cc1cn(C(c2ccccc2)(c2ccccc2)c2ccccc2)cn1)NCc1cccc(N(C)C)c1 | 5.6 µM |  |  |  |  |  |  |
| Cc1cc(C)nc(SCC(=O)Nc2ncc(Cc3cccc4ccccc34)s2)n1 |  |  |  |  | > 100 µM | > 100 µM | 13.7 µM |
| COC(=O)[C@H](Cc1c[nH]cn1)NCc1cc(N(C)C)cc(CN[C@@H](Cc2cn(C(c3ccccc3)(c3ccccc3)c3ccccc3)cn2)C(=O)OC)n1 |  |  |  | 5.5 µM | 6.51 µM | 8.61 µM | 2.29 µM |
| COC(=O)[C@H](Cc1cn(C(c2ccccc2)(c2ccccc2)c2ccccc2)cn1)NCc1cc(N(C)C)cc(CN[C@@H](Cc2cn(C(c3ccccc3)(c3ccccc3)c3ccccc3)cn2)C(=O)OC)n1 |  |  |  | 8.8 µM | 7.91 µM | 8.86 µM | 1.72 µM |
| COC(=O)[C@H](Cc1cn(C(c2ccccc2)(c2ccccc2)c2ccccc2)cn1)NCc1cc(N(C)C)ccn1 | 1.7 µM |  |  | 1.7 µM | 7.53 µM | 3.53 µM | 0.77 µM |
| COC(=O)[C@H](Cc1cn(C(c2ccccc2)(c2ccccc2)c2ccccc2)cn1)NCc1ccc(N(C)C)cc1 | 11.8 µM | 105% | 81.7% |  | 10.4 µM | 6.81 µM | 11.9 µM |

The next lines start with results.

| IC50 [1] | Activity [2] | Activity [3] | IC50 [4] | SMILES | IC50 (K562) | IC50 (MT2) | IC50 (MCF7) |
| --- | --- | --- | --- | --- | --- | --- | --- |
| 20.4 µM |  |  |  | COC(=O)[C@H](Cc1cn(C(c2ccccc2)(c2ccccc2)c2ccccc2)cn1)NC(=O)c1ccccn1 |  |  |  |
| 16.4 µM |  |  |  | COC(=O)[C@H](Cc1cn(C(c2ccccc2)(c2ccccc2)c2ccccc2)cn1)NCc1ccccc1 |  |  |  |
| 21.8 µM | 96.5% | 67.7% |  | COC(=O)[C@H](Cc1cn(C(c2ccccc2)(c2ccccc2)c2ccccc2)cn1)NCc1ccccn1 | 6.36 µM | 1.75 µM | 8.96 µM |
| 7.5 µM |  |  |  | COC(=O)[C@H](Cc1cn(C(c2ccccc2)(c2ccccc2)c2ccccc2)cn1)NCc1cccc(Br)n1 |  |  |  |
| 6.7 µM |  |  |  | COC(=O)[C@H](Cc1cn(C(c2ccccc2)(c2ccccc2)c2ccccc2)cn1)NCc1ccncc1Br |  |  |  |
| 3.3 µM |  |  |  | COC(=O)[C@H](Cc1cn(C(c2ccccc2)(c2ccccc2)c2ccccc2)cn1)NCc1cnc2ccccc2c1 |  |  |  |
| 10.2 µM |  |  |  | COC(=O)[C@H](Cc1cn(C(c2ccccc2)(c2ccccc2)c2ccccc2)cn1)NCc1ccc(Br)cn1 |  |  |  |
| 5.9 µM | 102% | 71.9% |  | COC(=O)[C@H](Cc1cn(C(c2ccccc2)(c2ccccc2)c2ccccc2)cn1)NCc1ccc(Br)nc1 | 5.35 µM | 1.37 µM | 9.87 µM |
